# Reference: patent US20240180888A1, “C5AR1 INHIBITORS FOR TREATING […] REACTIONS TO TAXANES” (Dompe' Farmaceutici SPA, priority 2021, published 2024)
# B1: C5a: anaphylatoxin, pro-inflammatory polypeptide, the natural ligand of the receptor C5aR1 (protein, UniProt P01031 678-751, looked up)
# C5a anaphylatoxin: TLQKKIEEIAAKYKHSVVKKCCYDGACVNNDETCEQRAARISLGPRCIKAFTECCVVASQLRANISHKDMQLGR
# modifications: C5a anaphylatoxin
# notes: anaphylatoxin, pro-inflammatory polypeptide, the natural ligand of the receptor C5aR1
# How the values were obtained:
# [1] = molecular target: T1, complement component 5a receptor 2 (C5AR2) (Homo sapiens, UniProt Q9P296); assay: BIAcore SPR binding to C5aR2 immobilised on sensorchip CM5 via His-tag
# T1 construct: purchased CUSABIO CSB-CF868390HU
# Source text: BIAcore technology was used to analyze the interaction between Paclitaxel and complement component 5a receptor 1 (C5aR1) (Example 1), complement component 5a receptor 2 (C5AR2) (Example 2) or complement component 5a (Example 3).
# The BIAcore systems exploit the phenomenon of Surface Plasmon Resonance (SPR) to monitor interactions between molecules in real time. Briefly, SPR phenomenon occurs in thin conducting films at an interface between media of different refractive index. In BIAcore systems, the media are the glass of the sensorchip and the sample solution, and the conducting film is a thin layer of gold on the sensorchip surface. BIAcore monitors the interaction between two molecules, one attached to the sensor surface, called ligand, and the other one free in solution, and called analyte.
# A policlonal anti-His antibody (ab137839, Abcam) was immobilized on a sensorchip CM5 (#29149604, Cytiva). In details, the antibody was diluted at a concentration of 50 μg/ml in 10 mM acetate buffer at pH 4.0, and injected over the surface of the sensorchip. Activation and deactivation of sensorchip were performed as described in Example 1a). […] Once the antibody was immobilized, the receptor was captured in an oriented way on the surface of the sensorchip. In particular, C5AR2-His (CSB-CF868390HU, CUSABIO) at a concentration of 100 μg/ml was injected onto the sensorchip with a flow rate of 5 microl/min in Running Buffer.
# 5 μM C5a (A144, Complement Technologies) was injected on C5AR2 surface of the sensorchip prepared in Example 2a).
# Paclitaxel was injected on the C5aR2 surface of the sensorchip prepared in Example 2a) at different concentrations (10, 100 and 200 microM) in Running Buffer, and the amount of obtained RU was evaluated.
# [2] = test system: RAW 264.7 mouse macrophages; assay: Proteome profiler cytokine release assay in RAW 264.7 macrophages; assay type: cell-based; conditions: 10 nM, 24 h; for proteome profile of cytokines released: murine
# Procedure: RAW 264.7 (ATTC TIB-71) mouse macrophages were cultured following manufacturer's instructions using DMEM medium (Euroclone, MI, Italy) supplemented with 10% FBS (non-heat inactivated) (ATCC, USA) at 37° C., in a humidified 95% air-5% CO2 atmosphere and then were seeded at 1*10^4 cells/cm^2.
# (§1) After 24 hours, cells were treated with C5a (diluted in medium) (10 nM, R&D, USA), Paclitaxel (diluted in medium) (10 nM, Sigma, USA) in the absence and in the presence of the C5a inhibitor DF3966A (10 μM), and anti C5aR Ab (BioLegend, CA, USA; 50 nM) or Avacopan (10 μM) for 24 hours, then the media was replaced with culture media (5 ml) for 24 h and then collected.
# (§2) Conditioned media were centrifugated to remove particulates and assayed immediately. […] The reagents were prepared following manufacturer's protocols (R&D, USA). Briefly, the membranes were incubated with Array Buffer 6 for 1 hour on a rocking platform shaker. The samples were prepared by adding up to 1 ml of Array Buffer 4 in two separated tubes and then 15 microl of reconstituted mouse cytokine detection antibody cocktail (>40 mouse cytokines) to each prepared sample and incubated 1 hour. Then, the Array Buffer 6 was aspirated and replaced with the sample/antibody mixtures and incubated at 4° C. overnight. The following day, membranes were washed 3 times and Streptavidin-HRP (1:2000) was incubated for 30 minutes at room temperature on a rocking platform shaker. The membranes were washed again, and 1 ml of prepared Chemi Reagent mix was placed onto each membrane. Multiple exposure times were acquired using UVITEC digital analyzer (Alliance, Cambridge, UK).
# (§3) The positive signals seen in the developed membranes can be identified by placing the transparency overlay template on the array image and aligning it with pairs of reference spots in the three corners of each array (see FIG. 10). […] Pixel densities (average signals of pair of duplicates which represent each cytokine) were analyzed by ImageJ and the average background was subtracted from each spot.
# (§4) In details, the profiling of cytokines released (>40 cytokines) from RAW 264.7 and human macrophages challenged with paclitaxel (Sigma-Aldrich; 10 nM) or C5a (R&D Systems, Inc. MN, USA; 10 nM) for 24 h using a proteome profiler assay. […] The experimental assay is explained in example 4.
# (§5) For the human macrophages, human XL Cytokine Array kit #Ary022B was used, while for murine macrophages mouse cytokine Array Panel A #Ary006 was used (R&D systems, USA).
# [3] = test system: human (THP-1) macrophages; assay: Proteome profiler cytokine release assay in human macrophages; assay type: cell-based; conditions: human; 10 nM, 24 h
# Procedure: as §1, §2, §3, §4, §5
# F11 hybridoma cells = assay: Real Time PCR for IL-8 mRNA expression in differentiated F11 cells; assay type: cell-based; conditions: 20 h; 10 nM Paclitaxel or 50 nM C5a
# Procedure: F11 hybridoma cells (ECACC 08062601), chosen as an alternative model of DRG neurons were cultured in DMEM medium (Euroclone, MI, Italy) supplemented with 10% FBS (Sigma-Aldrich St. Louis, CO, USA), 1% penicillin/streptomycin (Euroclone) and 1% glutamine (Euroclone) at 37° C., in a humidified 95% air-5% CO2 atmosphere. For the experiments, cells were used at 18th passage and seeded at 1×10^4 cells/cm2. After 24 h, cells were differentiated with rat NGF (rNGF) (Sigma). rNGF was dissolved in DMEM with 1% penicillin/streptomycin and 1% glutamine (FBS free) at the final concentration 50 ng/ml. The medium was replaced every 3 days until complete differentiation, which happened after 7 days. […]
# For gene expression analysis, the following protocol was used: total RNA was extracted by Trizol reagent, according to the manufacturer's instructions. The total RNA concentration was determined spectrophotometrically in RNAase-free water, and 1 μg aliquots of total RNA were reverse-transcripted into cDNA using ProtoScript First Strand cDNA Synthesis Kit (NEB). […] Relative expression levels were calculated for each sample after normalization against reference gene, using the ΔΔCt method for comparing relative fold expression differences, as previously described [Livak et al., 2001 DOI: 10.1006/meth.2001.1262]. […]
# T1 sequence (Q9P296 whole entry): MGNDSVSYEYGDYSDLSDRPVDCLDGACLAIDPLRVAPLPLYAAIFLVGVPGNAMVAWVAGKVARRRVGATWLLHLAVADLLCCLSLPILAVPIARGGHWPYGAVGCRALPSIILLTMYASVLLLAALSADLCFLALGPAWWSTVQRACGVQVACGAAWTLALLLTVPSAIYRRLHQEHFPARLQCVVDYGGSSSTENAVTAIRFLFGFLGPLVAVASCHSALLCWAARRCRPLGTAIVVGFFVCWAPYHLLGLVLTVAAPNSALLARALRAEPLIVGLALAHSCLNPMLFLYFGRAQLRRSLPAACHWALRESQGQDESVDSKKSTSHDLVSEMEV
molecule,measurement,setting,value
CC(=O)O[C@H]1C(=O)[C@@]2(C)[C@H]([C@H](OC(=O)c3ccccc3)[C@]3(O)C[C@H](OC(=O)[C@H](O)[C@@H](NC(=O)c4ccccc4)c4ccccc4)C(C)=C1C3(C)C)[C@]1(OC(C)=O)CO[C@@H]1C[C@@H]2O [Paclitaxel],binding to immobilised C5aR2,"[1]; 10, 100 and 200 microM in Running Buffer",not able to bind
same,binding to immobilised C5aR2 (legend of FIG. 8),[1]; from 4.06 μM to 37.5 μM,not able to bind
same,"levels of MCP-1, MIP-1α, MIP-1β, MIP-2 and ID Ra compared to the control group",[2],significantly increased
same,proteome profile of cytokines released,[2],resembled that of typical anaphylaxis
same,proteome profile of cytokines released,[3],resembled that of typical anaphylaxis
same,IL-8 relative mRNA expression,F11 hybridoma cells,increase IL-8 expression levels
B1,binding to immobilised C5aR2,[1]; 5 μM,is able to bind
same,"levels of MCP-1, MIP-1α, MIP-1β, MIP-2 and ID Ra compared to the control group",[2],significantly increased
same,proteome profile of cytokines released,[2],resembled that of typical anaphylaxis
same,proteome profile of cytokines released,[3],resembled that of typical anaphylaxis
same,IL-8 relative mRNA expression,F11 hybridoma cells,increases IL-8 expression levels
